Source: US20250223301A1, “KINASE INHIBITORS, PREPARATION METHODS AND USES THEREOF” (InventisBio Co., Ltd., priority 2022, published 2025)
Where two headings read alike, the source gives them in different places.

Columns and labels:
DGKz = DGKz (Homo sapiens (Human), UniProt Q13574); test: DGK ADP-Glo kinase assay (DGKz); type: biochemical; conditions: 5 nM DGKz, 15 uM ATP
Description: Luminescence was recorded using an Tecan SPARK microplate reader.

[1] = Human microsomal clearance assay; type: in vitro ADME; conditions: pH 7.4; for CLint scaled at 1 μM: human, liver microsomes; for half-life at 1 μM: human liver microsomes 0.5 mg/mL, 1 uM compound
Description: This study aimed to assess the metabolic stability of a compound in human liver microsomes using a microsomal clearance assay.
A mixture containing 100 mM potassium phosphate, pH 7.4, 0.5 mg/mL liver microsomes, 2 mM NADPH, and 1 μM compound were prepared and added to 96-well plate. The plates were then incubated at 37 ? for different time points (0, 5, 15, 30, 45 minutes) and the reaction was stopped with acetonitrile solution containing an internal standard. The samples were then analyzed by LC/MS/MS to determine how much of the compound remained at each time point. The elimination rate constant and half-life were calculated from the data, and the in vitro intrinsic clearance (CLint) was determined as follows: […]

DGKa [2] = target: T1, DGKa (Homo sapiens (Human), UniProt P23743);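 note: biochemical DGK kinase assay, ADP-Glo luminescence from ADP made by phosphorylating 1,2-dioleoyl-sn-glycerol, 20 min compound preincubation then 40 min reaction at 25 °C, 1% DMSO control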
Jurkat cells = test: Jurkat IL-2 assay; type: cell-based; conditions: Homo sapiens, anti-CD3/CD28 stimulation overnight, IL-2 level
Method in brief: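 Cells in RPMI-1640 with 10% FBS received compound solution (5 uM to 2.3 nM, 8 points, 3-fold dilution) for 60 minutes at 37° C. They were then stimulated overnight at 37° C. with anti-CD3/CD28 antibody. IL-2 in the supernatant was quantified by immunoassay kit and plotted against log compound concentration.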

[3] = tested on: whole blood from male C57BL6 mice; test: Mouse whole blood IFN-gamma assay; type: cell-based; conditions: anti-mouse CD3/CD28 0.6 ug/mL, 20 hours
Description: The whole blood from male C57BL6 mice (6-8 weeks old, Beijing Vital River Laboratory Animal Technology Co., Ltd.) was collected, pooled and dispensed at 200 uL per well in a 96-well plate. The blood was treated with compounds for one hour at 37° C. in a humidified 5% CO2 incubator. The blood was then stimulated with anti-mouse CD3 and anti-mouse CD28 antibody (BioLegend Cat #100340, #102116) at a final concentration of 0.6 ug/mL for 20 hours at 37° C. in a humidified 5% CO2 incubator. The blood was spun down, IFN-gamma in the supernatants was measured using ELISA kit (Excellbio Cat #EM002-96, #EM007-96) according the manufacture's instruction.

PBMC = test: Human PBMC IL-2 assay; type: cell-based; conditions: anti-CD3/CD28 stimulation overnight, IL-2 level
Method in brief: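 Healthy-donor frozen PBMC were thawed, rested 4 h at 37 °C and plated at ~200,000 cells/well. Cells were preincubated 60 min at 37 °C with compound solution (10 uM to 0.6 nM, 8 points, 4-fold, as added), then stimulated overnight with anti-CD3/CD28. Supernatant IL-2 was quantified by immunoassay kit and plotted against log compound concentration.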

DGKa [4] = target: T1, DGKa; test: biochemical
[5] = tested on: MC-38 murine colon adenocarcinoma cells; test: In vivo efficacy in MC38 syngeneic mouse tumor model; conditions: MC38, C57BL/6 mice; compound 67 0.6 mg/kg PO QD in combination with anti-PD-1 2 mg/kg i.p. twice per week
Description: Murine colon adenocarcinoma cells MC-38 were obtained from American Type Culture Collection (ATCC) and cultured in RPMI 1640 media containing 10% fetal bovine serum (FBS) at 37° C. in a humidified 5% CO2 incubator. Female C57BL/6 mice (20 2 g, 6-8 weeks old) were purchased from SPF Biotechnology Co., Ltd. (Beijing, China). MC-38 cells were collected from flask and suspended in PBS. Suspension of 1×10^6 cells in 0.1 mL culture media without FBS was injected subcutaneously into animal armpits. Once the tumor reached 100-150 mm^3, the mice were randomized into different groups and treatment was initiated. Mice were treated orally once per day (PO, QD) with compound 67 (0.6 mg/kg) or vehicle control. Anti-PD-1 antibody (BioXcell, Cat #BE0273) was diluted with PBS for dosing at 2 mg/kg and was administrated via intraperitoneal injection, twice per week. Tumor volume and body weight of mice were recorded twice per week.
All animals were housed in a room maintained at 23±3° C., 65%-75% humidity, with a controlled 12 h light-dark cycle for 5-7 days before experiments. Water and commercial laboratory complete food for mice were provided in the cage.
Tumor volume was calculated by measuring two perpendicular diameters using the following formula: (L×W^2)/2, in which L and W refer to the length and width tumor diameter, respectively.

[6] = tested on: CT26 murine colorectal adenocarcinoma cells; test: In vivo efficacy in CT26 syngeneic mouse tumor model; conditions: CT26, BALB/c mice; 3 mg/kg PO QD
Description: Murine colorectal adenocarcinoma cells CT26 (purchased from ATCC) were cultured in RPMI 1640 medium with 10% FBS. For tumor implantation, 6-8 weeks old BALB/c female mice (Beijing Vital River Laboratory Animal Technology Co., Ltd.) were given a subcutaneous injection of CT26 cell (1×10^7 cells/mL) in 0.1 mL suspension into the right flank. Once tumors grew to a volume of 50-100 mm3, mice were randomized into different groups and treatment was initiated. Mice were treated orally once per day (PO, QD) with DGK inhibitors (3 mg/kg) or vehicle control. Anti-PD-1 antibody (BioXcell, Cat #BE0273), anti-CTLA4 antibody (BioXcell, Cat #BE0164) were diluted with PBS for dosing at 10 mg/kg or 5 mg/kg, respectively. Antibody was administrated via intraperitoneal injection, twice per week. Tumor volume and body weight of mice were recorded twice per week.
All animals were housed in a room maintained at 23:3° C., 65%-75% humidity, with a controlled 12 h light-dark cycle for 5-7 days before experiments. Water and commercial laboratory complete food for mice were provided in the cage.

Chain of DGKz (Q13574 whole entry): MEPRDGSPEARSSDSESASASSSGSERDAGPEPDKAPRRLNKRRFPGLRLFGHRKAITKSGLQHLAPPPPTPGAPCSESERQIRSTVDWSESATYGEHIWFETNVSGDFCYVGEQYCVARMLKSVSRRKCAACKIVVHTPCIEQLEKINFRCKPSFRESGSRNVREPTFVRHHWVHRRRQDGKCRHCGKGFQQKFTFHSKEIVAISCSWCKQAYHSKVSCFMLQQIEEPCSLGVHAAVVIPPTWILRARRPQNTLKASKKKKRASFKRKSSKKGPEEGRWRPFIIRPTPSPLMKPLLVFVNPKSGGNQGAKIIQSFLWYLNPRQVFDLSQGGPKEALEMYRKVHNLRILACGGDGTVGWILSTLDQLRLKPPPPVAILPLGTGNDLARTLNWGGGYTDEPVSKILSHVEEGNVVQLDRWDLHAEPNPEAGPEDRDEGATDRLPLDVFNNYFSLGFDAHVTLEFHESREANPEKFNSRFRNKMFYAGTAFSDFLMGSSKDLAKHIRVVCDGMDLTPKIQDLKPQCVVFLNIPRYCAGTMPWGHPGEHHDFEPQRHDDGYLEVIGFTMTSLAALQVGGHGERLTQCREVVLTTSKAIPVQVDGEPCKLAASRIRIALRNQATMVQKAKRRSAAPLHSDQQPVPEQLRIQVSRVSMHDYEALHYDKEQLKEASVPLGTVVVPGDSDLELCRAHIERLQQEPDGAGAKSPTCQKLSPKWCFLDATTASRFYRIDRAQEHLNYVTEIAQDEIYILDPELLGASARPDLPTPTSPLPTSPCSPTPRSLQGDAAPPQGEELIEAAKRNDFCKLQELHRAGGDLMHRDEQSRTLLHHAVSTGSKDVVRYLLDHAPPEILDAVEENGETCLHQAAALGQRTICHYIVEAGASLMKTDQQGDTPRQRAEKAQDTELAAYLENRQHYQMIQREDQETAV
T1 sequence (P23743 whole entry): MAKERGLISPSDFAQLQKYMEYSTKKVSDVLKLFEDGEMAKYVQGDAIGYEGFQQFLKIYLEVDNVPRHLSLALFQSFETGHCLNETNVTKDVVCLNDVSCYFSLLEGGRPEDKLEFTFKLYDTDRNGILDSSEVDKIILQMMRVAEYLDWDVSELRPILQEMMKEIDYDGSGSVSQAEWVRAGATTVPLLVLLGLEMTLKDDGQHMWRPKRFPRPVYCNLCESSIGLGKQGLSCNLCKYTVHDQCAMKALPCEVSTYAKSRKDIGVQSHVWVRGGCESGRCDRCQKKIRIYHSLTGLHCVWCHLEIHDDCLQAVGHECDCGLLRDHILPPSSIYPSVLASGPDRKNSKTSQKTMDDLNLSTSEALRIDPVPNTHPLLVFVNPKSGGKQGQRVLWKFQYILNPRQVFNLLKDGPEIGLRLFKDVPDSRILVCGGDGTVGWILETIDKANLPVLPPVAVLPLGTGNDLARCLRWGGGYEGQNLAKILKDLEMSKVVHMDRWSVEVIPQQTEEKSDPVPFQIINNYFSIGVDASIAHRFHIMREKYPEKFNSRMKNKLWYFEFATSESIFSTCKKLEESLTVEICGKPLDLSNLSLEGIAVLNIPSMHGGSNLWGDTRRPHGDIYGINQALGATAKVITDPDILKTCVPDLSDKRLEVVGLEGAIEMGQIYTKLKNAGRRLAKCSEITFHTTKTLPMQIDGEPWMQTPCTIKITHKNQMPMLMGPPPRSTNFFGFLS

IC50 (DGKz)	CLint scaled at 1 μM [1]	half-life at 1 μM [1]	IC50 (DGKa [2])	EC50 (Jurkat cells)	EC50 [3]	IC50 (DGKa [4])	SMILES	EC50 (PBMC)	Tumor inhibition activity [5]	Tumor growth [6]
16 nM	7.5 mL/min/kg	3.88 h	–	49 nM	102 nM	4 nM	CC[C@@H]1CN2c3c(c(=O)n(C)c4ccc(C#N)nc34)OC[C@@H]2CN1[C@@H](CC)c1ccc(C(F)(F)F)cc1 [Compound 67]	40 nM	significantly better tumor inhibition activity than either of the single agents	–
–	1.1 mL/min/kg	25.7 h	–	30 nM	265 nM	–	CC[C@@H]1CN2c3c(c(=O)n(C)c4ccc(C#N)nc34)OC[C@@H]2CN1[C@@H](CC)c1ccc(C(F)(F)F)c(Cl)c1 (stereo in doubt) [Compound 246]	23 nM	–	–
–	–	–	–	26 nM	241 nM	–	CC[C@@H]1CN2c3c(c4nncn4c4ccc(C#N)nc34)OC[C@@H]2CN1[C@@H](CC)c1ccc(C(F)(F)F)cc1 [Compound 334]	31 nM	–	–

Second part, the compound before the results:

SMILES	IC50 (DGKz)	CLint scaled at 1 μM [1]	half-life at 1 μM [1]	IC50 (DGKa [2])	EC50 (Jurkat cells)	EC50 [3]	IC50 (DGKa [4])	EC50 (PBMC)	Tumor inhibition activity [5]	Tumor growth [6]
Cn1c(=O)nc(N2CCC3(CC2)CC(c2ccc(OC(F)(F)F)cc2)=NO3)c2nc(C#N)ccc21 [Compound 31]	24 nM	5.1 mL/min/kg	5.7 h	20 nM	–	–	–	–	–	–
C[C@@H]1CN2c3c(c(=O)n(C)c4ccc(C#N)nc34)OC[C@@H]2CN1[C@@H](C)c1ccc(C(F)(F)F)cc1 (stereo in doubt) [Compound 223]	–	18.3 mL/min/kg	1.58 h	–	70 nM	679 nM	–	47 nM	–	–
CC[C@@H]1CN2c3c(c(=O)n(C)c4ccc(C#N)nc34)OC[C@@H]2CN1[C@@H](CC)c1ccc(F)c(Cl)c1 (stereo in doubt) [Compound 197]	–	–	–	–	39 nM	312 nM	–	78 nM	–	–
CC[C@@H]1CN2c3c(c(=O)n(C)c4ccc(C#N)nc34)OC[C@@H]2CN1[C@@H](CC)c1ccc(Cl)c(Cl)c1 (stereo in doubt) [Compound 250]	–	12.3 mL/min/kg	2.37 h	–	32 nM	144 nM	–	16 nM	–	inhibit tumor growth
CC[C@@H](c1ccc(Cl)c(Cl)c1)N1C[C@H]2COc3c(c4nc(C#N)ccc4n(C)c3=O)N2C[C@H]1C (stereo in doubt) [Compound 322]	–	12.4 mL/min/kg	2.35 h	–	12 nM	281 nM	–	25 nM	–	–
CC[C@H]1CN([C@@H](CC)c2ccc(C(F)(F)F)cc2)[C@H](CC)CN1c1nc2nncn2c2ccc(C#N)nc12 [Compound 34]	42 nM	–	–	16 nM	67 nM	335 nM	–	44 nM	–	–
